Laboratory results taken from patent EP1061945B1, “USE OF VIP ANALOGUES FOR PREVENTING AND TREATING BRAIN DAMAGE IN HUMAN BABIES” (ASSISTANCE PUBLIQUE - HOPITAUX DE PARIS, priority 1998, dated 2002).
Entries after “also recorded” stand apart in the source; their conditions may differ. Bridge positions count the residues as written; N and C are the ends. Square brackets hold non-standard residues; d marks the D form. Peptide text beside a SMILES is read from it. Nle = CCCC[C@H](N)C(=O)O

Tested on: lésions excitotoxiques induites par l'iboténate dans le cerveau de souris en développement
Test: Ibotenate-induced excitotoxic brain lesions in newborn mice (intracerebral ibotenate at JN or JN+5)
Assay type: in vivo
From the text: Le modèle chez la souris obtenu par injection intracérébrale d'iboténate reproduit : • des lésions du cortex cérébral, semblables à celles observées chez le foetus humain entre 16 et 25 semaines de grossesse, lorsque l'iboténate est injecté le jour de la naissance (JN), • des lésions du cortex cérébral semblables aux lésions du nouveau-né humain à terme, lorsque l'injection d'iboténate est effectuée à JN + 5 et • des lésions de la substance blanche, semblables aux lésions du prématuré humain, lorsque l'iboténate est injecté à JN + 5.
Dans l'ensemble de ces figures : * = p<0,05, ** = p<0,01 (ANOVA + test de comparaison multiple de Dunnett par rapport aux contrôles (iboténate seul)).
Les souris sont préparées comme décrit dans J Clin. Investig. précité.
Le VIP est injecté par voie intracérébrale à raison de 1 µg (dose par animal) et les VIP cycliques ont été injectés par voie intrapéritonéale à raison de 10 µg (dose par animal).

[1] = ibotenate at JN+5, peptide by intraperitoneal route
[2] = ibotenate at JN+5, peptide by intracerebral route

| Compound | taille des lésions de substance blanche [1] | taille des lésions corticales (ibotenate at JN, given at the same time, cyclic VIP intraperitoneal, 10 µg per animal) | delay of administration after the ibotenate injection within which the effects at JN+5 are observed (JN+5, peptide given after ibotenate) | taille des lésions corticales [2] | taille des lésions de substance blanche [2] | taille des lésions corticales (ibotenate at JN+5, peptide by intraperitoneal (parenteral) route) |
| --- | --- | --- | --- | --- | --- | --- |
| CCCC[C@H](NC(=O)[C@H](CCCNC(=N)N)NC(=O)[C@H](CCCCN)NC(=O)[C@H](CCCNC(=N)N)NC(=O)[C@H](CC(C)C)NC(=O)[C@H](CCCCN)NC(=O)[C@@H](NC(=O)[C@H](Cc1ccc(O)cc1)NC(=O)[C@H](CC(N)=O)NC(=O)[C@H](CCC(=O)O)NC(=O)[C@@H](NC(=O)[C@H](Cc1ccccc1)NC(=O)[C@@H](NC(=O)[C@H](C)NC(=O)[C@H](CC(=O)O)NC(=O)[C@H](CO)NC(=O)[C@H](Cc1c[nH]cn1)NC(C)=O)C(C)C)[C@@H](C)O)[C@@H](C)O)C(=O)N[C@@H](C)C(=O)N[C@@H](C)C(=O)N[C@@H](CCCCN)C(=O)N[C@H]1CCCCNC(=O)C[C@@H](C(=O)N[C@@H](CC(C)C)C(=O)N[C@@H](CCCCN)C(=O)N[C@@H](CCCCN)C(=O)NCC(=O)NCC(=O)N[C@H](C(N)=O)[C@@H](C)O)NC(=O)[C@H](CC(N)=O)NC(=O)[C@H](CC(C)C)NC(=O)[C@H](Cc2ccc(O)cc2)NC1=O [SEQ ID NO:3] (Ac-HSDAVFTENYTKLRKR[Nle]AAKKYLNDLKKGGT-NH2; lactam 21-25) | reproduit les effets neuroprotecteurs de l'analogue cyclique de VIP de SEQ ID NO:2 | reproduit les effets neuroprotecteurs de l'analogue cyclique de VIP de SEQ ID NO:2 | – | – | – | – |
| CCCC[C@H](NC(=O)[C@H](CCC(N)=O)NC(=O)[C@H](CCCCN)NC(=O)[C@H](CCCNC(=N)N)NC(=O)[C@H](CC(C)C)NC(=O)[C@H](CCCCN)NC(=O)[C@@H](NC(=O)[C@H](Cc1ccc(O)cc1)NC(=O)[C@H](CC(N)=O)NC(=O)[C@H](CCC(=O)O)NC(=O)[C@@H](NC(=O)[C@H](Cc1ccccc1)NC(=O)[C@@H](NC(=O)[C@H](C)NC(=O)[C@H](CC(=O)O)NC(=O)[C@H](CO)NC(=O)[C@H](Cc1c[nH]cn1)NC(C)=O)C(C)C)[C@@H](C)O)[C@@H](C)O)C(=O)N[C@@H](C)C(=O)N[C@@H](C)C(=O)N[C@@H](CCCCN)C(=O)N[C@H]1CCCCNC(=O)C[C@@H](C(=O)N[C@@H](CC(C)C)C(=O)N[C@@H](CCCCN)C(=O)N[C@@H](CCCCN)C(=O)NCC(=O)NCC(=O)N[C@H](C(N)=O)[C@@H](C)O)NC(=O)[C@H](CC(N)=O)NC(=O)[C@H](CC(C)C)NC(=O)[C@H](Cc2ccc(O)cc2)NC1=O [SEQ ID NO:2] (Ac-HSDAVFTENYTKLRKQ[Nle]AAKKYLNDLKKGGT-NH2; lactam 21-25) | diminution de la taille des lésions de substance blanche significative; also recorded: activité significative; also recorded: protège significativement la substance blanche | – | 8 à 12 heures | n'est significative que lorsque l'analogue cyclique du VIP de SEQ ID NO:2 est administré par voie parentérale; also recorded: une certaine protection du cortex cérébral | diminution de la taille des lésions de substance blanche significative; also recorded: protège significativement la substance blanche | significative; also recorded: une certaine protection du cortex cérébral, surtout en intrapéritonéale |
